Literature values in US5705486A, “Isolation of novel peptides from green barley leaf extract and use same to inhibit human platelet aggregation” (Hagiwara; Yoshihide, priority 1996, dated 1998).

Tested on: rat anterior pituitary cells
Conditions: in vitro

Cc1c(C)c2c(c(C)c1OC(=O)CCC(=O)O)CC[C@@](C)(CCC[C@H](C)CCC[C@H](C)CCCC(C)C)O2 [α-tocopherol succinate]
release of growth hormone and/or prolactin from rat anterior pituitary cells (Badamchian et al 1994): enhances the release
prolactin release from rat anterior pituitary cells (Badamchian et al 1995): significant increase
